Data as given in patent US12115171B2, “Combination therapies and methods of use thereof for treating cancer” (Massachusetts Institute of Technology, priority 2014, dated 2024).
pEC50, pIC50: −log10 of the molar value. Like-named read-outs stand apart in the source and are kept apart here.

Legend:
[1] = cited from earlier work
LNCaP = experiment: Cell-Titer Glo viability, LNCaP; assay type: cell-based, human; settings: for effect on cell killing by 10 μM Abiraterone: 10, 20 and 40 μM SB203580 (FIG. 13B)
Protocol: (§1) Twenty four hours later, the indicated concentration of BI2536 and R1881 were added, representing time zero. Viability of the prostate cancer cells was assessed using Cell-Titer Glo™ according to the manufacturer's instructions.
(§2) Cell viability was assessed after 5 days using Cell-Titer Glo™ according to the manufacturer's instructions.
(§3) Cell viability was assessed after 4 days using Cell-Titer Glo™ according to the manufacturer's instructions.
Experiments were conducted to investigate the role of the p38MAPK-MK2 pathway in prostate cancer, Western blotting was used to investigate up-regulation of MK3 and MK5 protein levels in LNCaP cells after MK2 knock down using shRNA.

C4-2 = experiment: Cell-Titer Glo viability, C4-2; assay type: cell-based, human; settings: for relative levels of proliferation: 5 nM BI2536, 10 μM abiraterone, alone or in combination, FBS, 5 days post-administration (FIG. 4); for effect on cell killing by 10 μM Abiraterone: 10, 20 and 40 μM SB203580 (FIG. 13B)
Protocol: as §1
Viability was measured for the subsequent five days using Cell-Titer Glo™ according to the manufacturer's instructions.
as §2, §3

PSA expression = PSA expression by qPCR in C4-2 CRPC cells; assay type: cell-based, human; settings: 10 μM abiraterone, 5 nM BI2536, alone or combined; 24 hours; FBS (FIG. 8)
Description: RNA was isolated for analysis by qPCR.

HCT 116 xenografts = settings: cited from earlier work
BxPC-3 = settings: twice-weekly; cited from earlier work
A549 = settings: twice-weekly; cited from earlier work
[2] = cited from earlier work; remark: listed apart in the source
[3] = other studies; cited from earlier work
[4] = cited from earlier work; remark: listed apart in the source
[5] = tested on: panel of >50 other kinases; settings: concentrations up to 10 μM, in vitro; cited from earlier work
[6] = tested on: multiple human carcinoma xenografts including HCT 116, NCI-H460, and taxane-resistant CXB1 colon carcinoma; settings: ~25 mg/kg/day; cited from earlier work
[7] = in combination with afatinib; cited from earlier work
[8] = cited from earlier work; remark: listed apart in the source
22 RV1 = experiment: Cell-Titer Glo viability, 22 RV1; assay type: cell-based; settings: for effect on cell killing by 10 μM Abiraterone: 10, 20 and 40 μM SB203580 (FIG. 13B)
Protocol: Cell viability of PCa cell lines to increasing doses (10, 20 and 40 μM) of the p38MAPK inhibitor SB203580, as measured using Cell Titer Glo (FIG. 13A).

xenograft tumor models = settings: under proper dose scheduling; cited from earlier work
cell culture = settings: cited from earlier work
[9] = cited from earlier work; remark: listed apart in the source
Plk1 = Plk1 (Homo sapiens, UniProt P53350); settings: cited from earlier work
Chain of Plk1 (P53350 whole entry): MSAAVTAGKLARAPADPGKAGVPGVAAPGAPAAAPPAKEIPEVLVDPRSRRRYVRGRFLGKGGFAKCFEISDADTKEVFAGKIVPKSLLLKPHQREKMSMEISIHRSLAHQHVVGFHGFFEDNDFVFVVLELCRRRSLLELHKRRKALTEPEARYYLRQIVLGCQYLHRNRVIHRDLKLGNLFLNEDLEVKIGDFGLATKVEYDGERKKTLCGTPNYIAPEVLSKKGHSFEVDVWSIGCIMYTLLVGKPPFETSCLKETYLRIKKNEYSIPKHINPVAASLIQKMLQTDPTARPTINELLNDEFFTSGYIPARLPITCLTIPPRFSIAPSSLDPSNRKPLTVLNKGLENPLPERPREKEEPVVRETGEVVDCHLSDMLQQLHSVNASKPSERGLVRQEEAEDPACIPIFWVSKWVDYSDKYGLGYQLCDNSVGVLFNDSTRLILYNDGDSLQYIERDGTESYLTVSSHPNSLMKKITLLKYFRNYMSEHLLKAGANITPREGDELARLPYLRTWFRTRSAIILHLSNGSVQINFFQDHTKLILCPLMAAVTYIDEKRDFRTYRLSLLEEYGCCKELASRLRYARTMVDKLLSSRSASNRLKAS

[10] = tested on: various human tumor cell lines; settings: cited from earlier work
mouse xenograft models = settings: 10 mg/kg and 20 mg/kg on days 1 and 28; cited from earlier work
[11] = cited from earlier work; remark: listed apart in the source
[12] = 24 to 48 mg/m^2 for 5 consecutive days every 4 weeks; cited from earlier work
cell mitosis = settings: read-out: EC50 inhibition of cell mitosis; cited from earlier work
[13] = tested on: Cdc25C-T96 phosphorylation; settings: read-out: EC50 Cdc25C-T96 phosphorylation; cited from earlier work
[14] = tested on: cell lines, representative of both solid and hematological tumors; settings: cited from earlier work
[15] = target: several tyrosine kinases and cyclin-dependent kinase 1 (Cdk1); settings: cited from earlier work
[16] = tested on: Bel-7402, MCF-7, and MIA-PaCa cells; settings: 250 mg/kg; cited from earlier work
BT20 cells = settings: 200 mg/kg; cited from earlier work
[17] = cited from earlier work; remark: listed apart in the source
[18] = tested on: HT-29 human colorectal tumors; settings: cited from earlier work
[19] = tested on: several tumor cell lines, including those that express multidrug-resistant protein 1 (MDR1); settings: cited from earlier work
[20] = increasing concentrations of BI2536, csFBS (FIG. 3A)

For `CC(=O)O[C@H]1CC[C@@]2(C)C(=CC[C@@H]3[C@@H]2CC[C@]2(C)C(c4cccnc4)=CC[C@@H]32)C1` [Abiraterone acetate, abiraterone acetate], the solubility in water [1] is given as “practically insoluble in water”.
With `CC[C@@H]1C(=O)N(C)c2cnc(Nc3ccc(C(=O)NC4CCN(C)CC4)cc3OC)nc2N1C1CCCC1` [BI2536] the proliferation over time (LNCaP; 5 nM BI2536, csFBS (FIG. 3B)) was “reduced”, the viability (LNCaP; [20]) was “reduced” and the “relative levels of proliferation” value (C4-2) was “reduced over time”. For the same compound, the proliferation over time (C4-2; 5 nM BI2536, csFBS (FIG. 3B)) was “reduced”, the viability (C4-2; [20]) was “reduced” and the PSA expression (PSA expression) was “did not suppress PSA expression”. The T/C (HCT 116 xenografts; 50 mg/kg once per week) was 15%, the T/C (HCT 116 xenografts; 50 mg/kg twice per week) was 0.3% and the T/C (BxPC-3) was 5%. The T/C (A549) was 14%, the maximum tolerated dose ([2]; day 1 schedule) was 350 mg and the maximum tolerated dose ([2]; days 1+8 schedule) was 200 mg. The MTD [3] was 50 to 70 mg, the safety profile ([4]; 200 mg combined with standard-dose pemetrexed) was “acceptable safety profile” and the “dose-limiting toxicities (DLT)” value ([4]; 325 mg with pemetrexed) was “grade 3 pruritus and rash; grade 4 neutropenia”. The “maximum tolerated dose (MTD)” value ([4]; in combination with 500 mg/m^2 pemetrexed, day 1 every 3 weeks, intravenous) was 300 mg.
In the case of `CC[C@@H]1C(=O)N(C)c2cnc(Nc3ccc(C(=O)N[C@H]4CC[C@H](N5CCN(CC6CC6)CC5)CC4)cc3OC)nc2N1C(C)C` [BI6727], the “inhibitory activity against a panel of >50 other kinases” value [5] is given as “no inhibitory activity”, the growth of xenografts [6] is given as “significantly inhibits the growth” and the MTD [7] is given as 300 mg. For the same compound, the DLTs ([8]; i.v. once every 3 weeks, 12-450 mg) was “neutropenia, thrombocytopenia, and febrile neutropenia”, the MTD ([8]; i.v. once every 3 weeks) was 400 mg and the “recommended dose for further development based on overall tolerability” value ([8]; in vivo) was 300 mg.
With `CC(=O)O[C@@]12CO[C@@H]1C[C@H](O)[C@@]1(C)C(=O)[C@H](O)C3=C(C)[C@@H](OC(=O)[C@H](O)[C@@H](NC(=O)OC(C)(C)C)c4ccccc4)C[C@@](O)([C@@H](OC(=O)c4ccccc4)[C@H]21)C3(C)C` [Docetaxel, docetaxel] the “synergy with Abiraterone (% viability)” value (LNCaP; 5 nM docetaxel, increasing abiraterone, 4 days, FBS (FIG. 7A)) was “did not synergize with Abiraterone”, the “synergy with Abiraterone (% viability)” value (C4-2; 5 nM docetaxel, increasing abiraterone, 4 days, csFBS (FIG. 7C)) was “did not synergize with Abiraterone” and the “synergy with Abiraterone (% viability)” value (22 RV1; 5 nM docetaxel, increasing abiraterone, 4 days, csFBS (FIG. 7B)) was “did not synergize with Abiraterone”.
In the case of `C[C@@H](Oc1cc(-n2cnc3ccc(CN4CCN(C)CC4)cc32)sc1C(N)=O)c1ccccc1C(F)(F)F` [GSK461364], the “effect in xenograft tumor models” value (xenograft tumor models) is listed as “tumor regression”, the “nature of cell culture growth inhibition” value (cell culture) is listed as “cytostatic or cytotoxic” and the DLTs ([9]; in vivo) is listed as “grade 4 neutropenia, sepsis, and pulmonary embolism”. For the same compound, the “incidence of venous thrombotic emboli” value ([9]; in vivo) was 20% and the “final recommended phase II dose” value ([9]; intravenously, schedule A (days 1, 8, and 15 of 28-day cycle)) was 225 mg.
For `COc1ccc(S(=O)(=O)Nc2ccccc2/C=C/c2cc[n+]([O-])cc2)cc1` [HMN-176], the “direct inhibition of the enzymatic activity of Plk1” value (Plk1) is given as “does not directly inhibit the enzymatic activity of Plk1”, the cytotoxicity [10] is given as “potent cytotoxicity” and the antitumor activity (mouse xenograft models) is given as “potent antitumor activity”.
For `COc1ccc(S(=O)(=O)N(C(C)=O)c2ccccc2/C=C/c2cc[n+]([O-])cc2)cc1` [HMN-214], the dose-limiting toxicities ([11]; 9.9 mg/m^2/d) is listed as “severe myalgia/bone pain syndrome and hyperglycemia”, the “maximum tolerated dose and recommended dose” value ([11]; continuous 21-day dosing schedule every 28 days) is listed as 8.0 mg/m^2/d and the DLTs [12] is listed as “prolonged neutropenia, febrile neutropenia, neutropenic sepsis, electrolyte disturbance, neuropathy, and myalgia”.
For `Cc1ncc(CCCN(C)C)cc1Nc1ncc2c(n1)-c1ccc(C(F)(F)F)cc1NC(=S)C2` [MLN0905], the pEC50 (cell mitosis) is listed as 8.05 and the pEC50 [13] is listed as 7.54.
In the case of `CN1CCN(c2ccc(OC(F)(F)F)c(Nc3ncc4c(n3)-c3c(c(C(N)=O)nn3CCO)CC4)c2)CC1` [NMS 1286937], the “potency in proliferation assays” value [14] is listed as “low nanomolar activity”.
For `COc1cc(OC)c(/C=C/S(=O)(=O)Cc2ccc(OC)c(NCC(=O)[O-])c2)c(OC)c1.[Na+]` [ON 01910], the pIC50 [15] is listed as 6.59 to 7.74, the tumor growth [16] is listed as “inhibited tumor growth” and the tumor growth (BT20 cells) is listed as “inhibition of tumor growth”. For the same compound, the DLT ([17]; at the MTD) was “Grade 3 abdominal pain” and the MTD ([17]; i.v. days 1, 4, 8, 11, 15, and 18 in 28-day cycles) was 3,120 mg.
With `C[C@]1(O)CC[C@H]2[C@@H]3CCC4=CC(=O)CCC4=C3C=C[C@@]21C` [R1881] the “proliferation over time in the presence of BI2536 and synthetic androgen” value (LNCaP; 5 nM BI2536, csFBS (FIG. 3B)) was “somewhat rescued”, the “viability in the presence of BI2536 and synthetic androgen” value (LNCaP; csFBS (FIG. 3A)) was “somewhat rescued” and the “proliferation over time in the presence of BI2536 and synthetic androgen” value (C4-2; 5 nM BI2536, csFBS (FIG. 3B)) was “somewhat rescued”. The “viability in the presence of BI2536 and synthetic androgen” value (C4-2; csFBS (FIG. 3A)) was “somewhat rescued”.
In the case of `COc1cc(C(=O)NC2CCN(C)CC2)ccc1Nc1ncc2c(n1)N(C1CCCC1)CC(F)(F)C(=O)N2C` [RO3280], the antitumor activity ([18]; dosed more frequently) is given as “complete tumor regression” and the tumor growth inhibition ([18]; once weekly at 40 mg/kg) is given as 72%.
For `C[S+]([O-])c1ccc(-c2nc(-c3ccncc3)c(-c3ccc(F)cc3)[nH]2)cc1` (centres unmarked) [SB203580], the “cell death, p38MAPK inhibition alone” value (LNCaP; 10, 20 and 40 μM (FIG. 13A)) was “small amounts of cell death”, the “effect on cell killing by 10 μM Abiraterone” value (shortened to “effect on cell killing”) (LNCaP) was “additive” and the “effect on cell killing” value (LNCaP; listed as p38MAPK inhibitor) was “modestly enhanced”. For the same compound, the “cell death, p38MAPK inhibition alone” value (C4-2; 10, 20 and 40 μM (FIG. 13A)) was “small amounts of cell death”, the “effect on cell killing” value (C4-2) was “additive” and the “effect on cell killing” value (C4-2; listed as p38MAPK inhibitor) was “modestly enhanced”. The “cell death, p38MAPK inhibition alone” value (22 RV1; 10, 20 and 40 μM (FIG. 13A)) was “small amounts of cell death”, the “effect on cell killing” value (22 RV1) was “additive” and the “effect on cell killing” value (22 RV1; listed as p38MAPK inhibitor) was “modestly enhanced”.
For `COc1cc(C(=O)NC2CCN(C)CC2)c(F)cc1Nc1ncc2c(n1)N(C1CCCC1)CC(F)(F)C(=O)N2C` [TAK-960], the “activity in tumor cell lines” value [19] is listed as “has shown activity”.
With `C[C@]12CC[C@H](O)CC1=CC[C@@H]1[C@@H]2CC[C@]2(C)C(c3cccnc3)=CC[C@@H]12` [abiraterone] the “relative levels of proliferation” value (C4-2) was “reduced over time”, the “sensitivity to Abiraterone in the absence of BI2536” value (C4-2; five days, csFBS) was “relatively resistant” and the “sensitivity to Abiraterone in the absence of BI2536” value (22 RV1; five days, csFBS) was “relatively resistant”. The PSA expression (PSA expression) was “substantially decreased”.
